Inconclusive results and toxic doses are left out. The calls were made as follows: active = survival T/C of 150% or more; inactive = T/C below 125% in these data.
Test system: CD2F1 mice, L1210 leukemia ip, survival T/C
Experiment: NCI In Vivo Anticancer Drug Screen. Data for tumor model L1210 Leukemia (intraperitoneal) in CD2F1 (CDF1) mice
Details: higher = longer survival
Outline: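 Vehicle-treated tumor-bearing mice served as controls (C) for compound-treated mice (T). Reported figure is T divided by C.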

[1] = endpoint: mean survival time, dose: 100.0 mg/kg/injection, schedule: Q01DX009 (ip), vehicle: saline with Tween-80
[2] = endpoint: mean survival time, dose: 200.0 mg/kg/injection, schedule: Q01DX009 (ip), vehicle: saline with Tween-80
[3] = endpoint: mean survival time, dose: 400.0 mg/kg/injection, schedule: Q01DX009 (ip), vehicle: saline with Tween-80
[4] = endpoint: mean survival time, dose: 100.0 mg/kg/injection, schedule: Q04DX003 (ip), vehicle: saline with Tween-80
[5] = endpoint: mean survival time, dose: 200.0 mg/kg/injection, schedule: Q04DX003 (ip), vehicle: saline with Tween-80
[6] = endpoint: mean survival time, dose: 400.0 mg/kg/injection, schedule: Q04DX003 (ip), vehicle: saline with Tween-80

Measured: T/C

CCOC(=O)Nc1cc2c(c(N)n1)N=C(c1ccc(Cl)cc1Cl)CN2
inactive: endpoint: median survival time, dose: 3.12 mg/kg/injection, schedule: Q01DX009 (ip), vehicle: saline with Tween-80 106 % of control | endpoint: median survival time, dose: 6.25 mg/kg/injection, schedule: Q01DX009 (ip), vehicle: saline with Tween-80 112 % of control | endpoint: median survival time, dose: 12.5 mg/kg/injection, schedule: Q01DX009 (ip), vehicle: saline with Tween-80 114 % of control

COC(=O)Nc1cccc(OC(=O)NC(C)(C)CC(C)(C)C)c1
inactive: endpoint: mean survival time, dose: 25.0 mg/kg/injection, schedule: Q01DX009 (ip), vehicle: saline with Tween-80 101 % of control | endpoint: mean survival time, dose: 50.0 mg/kg/injection, schedule: Q01DX009 (ip), vehicle: saline with Tween-80 101 % of control | [1] 97 % of control

CNc1ccn(C2OC(CO)C(O)C2O)c(=O)n1 (configuration not stated)
inactive: endpoint: mean survival time, dose: 100.0 mg/kg/injection, schedule: Q01DX005 (ip), vehicle: distilled water + Tween-80 107 % of control | endpoint: mean survival time, dose: 200.0 mg/kg/injection, schedule: Q01DX005 (ip), vehicle: distilled water + Tween-80 104 % of control | endpoint: mean survival time, dose: 400.0 mg/kg/injection, schedule: Q01DX005 (ip), vehicle: distilled water + Tween-80 107 % of control

Cc1ccc(N=Nc2c(N)nc(N)[nH]c2=O)cc1C
inactive: [1] 97 % of control | [2] 97 % of control | [3] 99 % of control

COc1cc([C@@H]2c3cc4c(c(O)c3C[C@H]3COC(=O)[C@@H]32)OCO4)cc(OC)c1O
inactive: endpoint: mean survival time, dose: 125.0 micrograms/kg/injection, schedule: Q01DX009 (ip), vehicle: saline 102 % of control | endpoint: mean survival time, dose: 250.0 micrograms/kg/injection, schedule: Q01DX009 (ip), vehicle: saline 108 % of control | endpoint: mean survival time, dose: 500.0 micrograms/kg/injection, schedule: Q01DX009 (ip), vehicle: saline 110 % of control | endpoint: mean survival time, dose: 1000.0 micrograms/kg/injection, schedule: Q01DX009 (ip), vehicle: saline 122 % of control | endpoint: mean survival time, dose: 2000.0 micrograms/kg/injection, schedule: Q01DX009 (ip), vehicle: saline 118 % of control

O=C(O)C1=NN(c2cccc([N+](=O)[O-])c2)C(=O)C1
inactive: [1] 114 % of control | [4] 98 % of control | [2] 101 % of control | [5] 104 % of control | [3] 95 % of control | [6] 102 % of control

CC(=O)N1CCc2cc(N)ccc21
inactive: [4] 93 % of control | [5] 95 % of control | [6] 97 % of control

COc1ccc(Cl)cc1C(c1cc(Cl)ccc1OC)C(Cl)(Cl)Cl
inactive: [1] 97 % of control | [4] 103 % of control | [2] 109 % of control | [5] 103 % of control | [3] 104 % of control | [6] 101 % of control

O=C1CCCCCCCCCCC1C(O)(C(F)(F)F)C(F)(F)F (configuration not stated)
inactive: [1] 96 % of control | [4] 91 % of control | [2] 101 % of control | [5] 95 % of control | [3] 96 % of control | [6] 91 % of control

OCc1ccccc1OC1OC(CO)C(O)C(O)C1O (configuration not stated)
inactive: endpoint: mean survival time, dose: 50.0 mg/kg/injection, schedule: Q01DX009 (ip), vehicle: Klucel (hydroxypropylcellulose) (HPC) 96 % of control | endpoint: mean survival time, dose: 100.0 mg/kg/injection, schedule: Q01DX009 (ip), vehicle: Klucel (hydroxypropylcellulose) (HPC) 101 % of control | endpoint: mean survival time, dose: 200.0 mg/kg/injection, schedule: Q01DX009 (ip), vehicle: Klucel (hydroxypropylcellulose) (HPC) 108 % of control

c1ccc(-c2nc3ccccc3s2)nc1
inactive: [4] 96 % of control | [5] 103 % of control | [6] 96 % of control

CC(C)(C)OC(=O)NCCCCC(N)C(=O)OC(C)(C)C (configuration not stated)
inactive: endpoint: mean survival time, dose: 100.0 mg/kg/injection, schedule: Q04DX003 (ip), vehicle: saline 96 % of control | endpoint: mean survival time, dose: 200.0 mg/kg/injection, schedule: Q04DX003 (ip), vehicle: saline 93 % of control

O=C(Nc1cccc([N+](=O)[O-])c1)c1ccc(Cl)cc1Cl
inactive: [1] 90 % of control | [2] 92 % of control | [3] 90 % of control

CCCCCCCCCCCCCCCCC1CCCC1C1CCCC1 (configuration not stated)
inactive: endpoint: mean survival time, dose: 100.0 mg/kg/injection, schedule: Q01DX001 (ip), vehicle: saline sonified 102 % of control | endpoint: mean survival time, dose: 200.0 mg/kg/injection, schedule: Q01DX001 (ip), vehicle: saline sonified 101 % of control | endpoint: mean survival time, dose: 400.0 mg/kg/injection, schedule: Q01DX001 (ip), vehicle: saline sonified 96 % of control

From PubChem BioAssay AID256 (DTP/NCI, 2004)
